Reference: ChEMBL document CHEMBL4834412, “2,4,5-Trisubstituted Pyrimidines as Potent HIV-1 NNRTIs: Rational Design, Synthesis, Activity Evaluation, and Crystallographic Studies” (J Med Chem, 2021)

Key:
Assay type in all cases: functional, organism-based
[1] = tested on: Human immunodeficiency virus 1; test: Antiviral activity against HIV-1 harboring RT Y188L mutant infected in human MT4 cells assessed as protection against virus-induced cytopathogenicity after 5 days by MTT assay; settings: Human immunodeficiency virus 1, MT4, 120 h
[2] = tested on: Human immunodeficiency virus 1; test: Antiviral activity against HIV-1 harboring RT Y181C mutant infected in human MT4 cells assessed as protection against virus-induced cytopathogenicity after 5 days by MTT assay; settings: Human immunodeficiency virus 1, MT4, 120 h
[3] = tested on: Human immunodeficiency virus 1; test: Antiviral activity against NNRTI-resistant HIV-1 RES056 harboring RT K103N/Y181C mutant infected in human MT4 cells assessed as protection against virus-induced cytopathogenicity after 5 days by MTT assay; settings: Human immunodeficiency virus 1, RES056, MT4, 120 h
[4] = tested on: Human immunodeficiency virus 1; test: Antiviral activity against HIV-1 harboring RT L100I mutant infected in human MT4 cells assessed as protection against virus-induced cytopathogenicity after 5 days by MTT assay; settings: Human immunodeficiency virus 1, MT4, 120 h
[5] = tested on: Human immunodeficiency virus 1; test: Antiviral activity against HIV-1 harboring RT K103N mutant infected in human MT4 cells assessed as protection against virus-induced cytopathogenicity after 5 days by MTT assay; settings: Human immunodeficiency virus 1, MT4, 120 h
[6] = tested on: Human immunodeficiency virus 1; test: Antiviral activity against HIV-1 harboring RT F227L/V106A mutant infected in human MT4 cells assessed as protection against virus-induced cytopathogenicity after 5 days by MTT assay; settings: Human immunodeficiency virus 1, MT4, 120 h
[7] = tested on: Human immunodeficiency virus 1; test: Antiviral activity against HIV-1 harboring RT E138K mutant infected in human MT4 cells assessed as protection against virus-induced cytopathogenicity after 5 days by MTT assay; settings: Human immunodeficiency virus 1, MT4, 120 h
[8] = tested on: Human immunodeficiency virus 1; test: Antiviral activity against HIV-1 strain IIIB infected in human MT4 cells assessed as protection against virus-induced cytopathicity after 5 days by MTT assay; settings: Human immunodeficiency virus 1, IIIB, MT4, 120 h

Compound | EC50 [1] | EC50 [2] | EC50 [3] | EC50 [4] | EC50 [5] | EC50 [6] | EC50 [7] | EC50 [8]
Cc1cc(C#N)cc(C)c1Oc1nc(NC2CCN(Cc3ccc(S(N)(=O)=O)cc3)CC2)ncc1-c1ccco1 | 36.5 nM | 24.8 nM | 218 nM | 20.9 nM | 5.33 nM | 128 nM | 24.5 nM | 4.4 nM
Cc1cc(/C=C/C#N)cc(C)c1Oc1nc(NC2CCN(Cc3ccc(C(N)=O)cc3)CC2)ncc1-c1ccc(F)nc1 | 30.1 nM | 10.3 nM | 20.4 nM | 5.76 nM | 5.97 nM | 27.5 nM | 11.7 nM | 4.56 nM
Cc1cc(/C=C/C#N)cc(C)c1Oc1nc(NC2CCN(Cc3ccc(S(N)(=O)=O)cc3)CC2)ncc1-c1ccnc(Cl)c1 |  |  | 20.9 nM |  |  |  |  | 4.3 nM
Cc1cc(C#N)cc(C)c1Oc1nc(NC2CCN(Cc3ccc(S(N)(=O)=O)cc3)CC2)ncc1-c1ccncc1 | 21.4 nM | 6.93 nM | 111 nM | 10.6 nM | 2.33 nM | 45.9 nM | 8.12 nM | 2.59 nM
Cc1cc(C#N)cc(C)c1Oc1nc(NC2CCN(Cc3ccc(S(C)(=O)=O)cc3)CC2)ncc1-c1cccs1 | 15.4 nM | 11.6 nM | 134 nM | 8.93 nM | 5.71 nM | 38.4 nM | 6.27 nM | 4.01 nM
Cc1cc(C#N)cc(C)c1Oc1nc(NC2CCN(Cc3ccc(S(C)(=O)=O)cc3)CC2)ncc1-c1ccsc1 | 27.2 nM | 11.7 nM | 253 nM | 20.3 nM | 4.75 nM | 67.5 nM | 10.6 nM | 4.92 nM
Cc1cc(C#N)cc(C)c1Oc1nc(NC2CCN(Cc3ccc(S(C)(=O)=O)cc3)CC2)ncc1-c1ccoc1 | 24.2 nM | 14.4 nM | 172 nM | 14.8 nM | 4.39 nM | 41.5 nM | 15.3 nM | 4.75 nM
Cc1cc(/C=C/C#N)cc(C)c1Oc1nc(NC2CCN(Cc3ccc(C(N)=O)cc3)CC2)ncc1-c1ccnc(Cl)c1 |  |  | 81.7 nM |  |  |  |  | 4.14 nM
Cc1cc(/C=C/C#N)cc(C)c1Oc1nc(NC2CCN(Cc3ccc(S(C)(=O)=O)cc3)CC2)ncc1-c1ccnc(Br)c1 |  |  | 33.2 nM |  |  |  |  | 4.52 nM
COc1cc(-c2cnc(NC3CCN(Cc4ccc(C(N)=O)cc4)CC3)nc2Oc2c(C)cc(/C=C/C#N)cc2C)ccn1 |  |  | 40.3 nM |  |  |  |  | 7.28 nM
Cc1cc(/C=C/C#N)cc(C)c1Oc1nc(NC2CCN(Cc3ccc(S(N)(=O)=O)cc3)CC2)ncc1-c1cccnc1 | 25.1 nM | 9.95 nM | 25.8 nM | 7.85 nM | 6.25 nM | 12.2 nM | 11.9 nM | 5.04 nM
Cc1cc(C#N)cc(C)c1Oc1nc(NC2CCN(Cc3ccc(S(N)(=O)=O)cc3)CC2)ncc1-c1ccoc1 | 15.3 nM | 9.35 nM | 161 nM | 13.6 nM | 3 nM | 63.2 nM | 13 nM | 2.51 nM
Cc1cc(C#N)cc(C)c1Oc1nc(NC2CCN(Cc3ccc(S(C)(=O)=O)cc3)CC2)ncc1-c1ccncc1 | 18.5 nM | 10.8 nM | 244 nM | 17.4 nM | 4.4 nM | 79.4 nM | 9.19 nM | 5.93 nM
Cc1cc(/C=C/C#N)cc(C)c1Oc1nc(NC2CCN(Cc3ccc(S(N)(=O)=O)cc3)CC2)ncc1-c1ccnc(Br)c1 |  |  | 26.9 nM |  |  |  |  | 4.42 nM
Cc1cc(/C=C/C#N)cc(C)c1Oc1nc(NC2CCN(Cc3ccc(S(N)(=O)=O)cc3)CC2)ncc1-c1ccnc(F)c1 |  |  | 38.8 nM |  |  |  |  | 6.37 nM
Cc1cc(/C=C/C#N)cc(C)c1Oc1nc(NC2CCN(Cc3ccc(S(C)(=O)=O)cc3)CC2)ncc1-c1ccc(F)nc1 |  |  | 25.5 nM |  |  |  |  | 6.04 nM
Cc1cc(/C=C/C#N)cc(C)c1Oc1nc(NC2CCN(Cc3ccc(C(N)=O)cc3)CC2)ncc1-c1ccncc1 | 23 nM | 7.14 nM | 23.3 nM | 5.62 nM | 3.84 nM | 35.5 nM | 8.66 nM | 4.19 nM
Cc1cc(/C=C/C#N)cc(C)c1Oc1nc(NC2CCN(Cc3ccc(S(C)(=O)=O)cc3)CC2)ncc1-c1ccnc(F)c1 |  |  | 25.1 nM |  |  |  |  | 4.75 nM
Cc1cc(/C=C/C#N)cc(C)c1Oc1nc(NC2CCN(Cc3ccc(S(C)(=O)=O)cc3)CC2)ncc1-c1cccnc1 | 22.7 nM | 10.3 nM | 22.4 nM | 10.7 nM | 5.42 nM | 13.2 nM | 12.2 nM | 4.57 nM
Cc1cc(-c2cnc(NC3CCN(Cc4ccc(S(N)(=O)=O)cc4)CC3)nc2Oc2c(C)cc(/C=C/C#N)cc2C)ccn1 |  |  | 23 nM |  |  |  |  | 4.16 nM

Compound | EC50 [1] | EC50 [2] | EC50 [3] | EC50 [4] | EC50 [5] | EC50 [6] | EC50 [7] | EC50 [8]
COc1cc(-c2cnc(NC3CCN(Cc4ccc(S(C)(=O)=O)cc4)CC3)nc2Oc2c(C)cc(/C=C/C#N)cc2C)ccn1 |  |  | 30 nM |  |  |  |  | 3.95 nM
Cc1cc(/C=C/C#N)cc(C)c1Oc1nc(NC2CCN(Cc3ccc(C(N)=O)cc3)CC2)ncc1-c1ccnc(F)c1 |  |  | 53.4 nM |  |  |  |  | 8.26 nM
Cc1cc(C#N)cc(C)c1Oc1nc(NC2CCN(Cc3ccc(S(N)(=O)=O)cc3)CC2)ncc1-c1ccccc1 | 33.2 nM | 26.2 nM | 427 nM | 53.2 nM | 7.74 nM | 219 nM | 24.5 nM | 5.14 nM
Cc1cc(/C=C/C#N)cc(C)c1Oc1nc(NC2CCN(Cc3ccc(S(C)(=O)=O)cc3)CC2)ncc1-c1ccnc(Cl)c1 |  |  | 33.3 nM |  |  |  |  | 4.23 nM
Cc1cc(C#N)cc(C)c1Oc1nc(NC2CCN(Cc3ccc(S(C)(=O)=O)cc3)CC2)ncc1-c1ccccc1 | 35.5 nM | 33.7 nM | 590 nM | 71.7 nM | 11.7 nM | 218 nM | 32.1 nM | 4.93 nM
Cc1cc(/C=C/C#N)cc(C)c1Oc1nc(NC2CCN(Cc3ccc(C(N)=O)cc3)CC2)ncc1-c1cccnc1 | 25.5 nM | 10.1 nM | 23.1 nM | 10.8 nM | 5.76 nM | 21.7 nM | 11.3 nM | 4.78 nM
Cc1cc(-c2cnc(NC3CCN(Cc4ccc(S(C)(=O)=O)cc4)CC3)nc2Oc2c(C)cc(/C=C/C#N)cc2C)ccn1 |  |  | 31.5 nM |  |  |  |  | 4.55 nM
Cc1cc(/C=C/C#N)cc(C)c1Oc1nc(NC2CCN(Cc3ccc(S(N)(=O)=O)cc3)CC2)ncc1-c1ccc(F)nc1 | 36.7 nM | 15.4 nM | 28.2 nM | 11.4 nM | 7.5 nM | 23.1 nM | 49.1 nM | 5.8 nM
Cc1cc(C#N)cc(C)c1Oc1nc(NC2CCN(Cc3ccc(C(N)=O)cc3)CC2)ncc1-c1ccccc1 | 30.5 nM | 28.7 nM | 562 nM | 151 nM | 9.15 nM | 393 nM | 17.1 nM | 5.11 nM
Cc1cc(-c2cnc(NC3CCN(Cc4ccc(C(N)=O)cc4)CC3)nc2Oc2c(C)cc(/C=C/C#N)cc2C)ccn1 |  |  | 18.1 nM |  |  |  |  | 3.53 nM
COc1cc(-c2cnc(NC3CCN(Cc4ccc(S(N)(=O)=O)cc4)CC3)nc2Oc2c(C)cc(/C=C/C#N)cc2C)ccn1 |  |  | 34.3 nM |  |  |  |  | 5.75 nM
Cc1cc(/C=C/C#N)cc(C)c1Oc1nc(NC2CCN(Cc3ccc(S(N)(=O)=O)cc3)CC2)ncc1-c1ccc(N)nc1 |  |  | 33.5 nM |  |  |  |  | 5.8 nM
Cc1cc(C#N)cc(C)c1Oc1nc(NC2CCN(Cc3ccc(C(N)=O)cc3)CC2)ncc1-c1ccsc1 | 30 nM | 26.4 nM | 415 nM | 62.6 nM | 5.52 nM | 325 nM | 22 nM | 4.22 nM
Cc1cc(/C=C/C#N)cc(C)c1Oc1nc(NC2CCN(Cc3ccc(C(N)=O)cc3)CC2)ncc1-c1ccc(N)nc1 | 54.2 nM | 12 nM | 30.2 nM | 11.3 nM | 6.66 nM | 15.4 nM | 15.4 nM | 6.56 nM
Cc1cc(C#N)cc(C)c1Oc1nc(Nc2ccc(C#N)cc2)nc(N)c1Br [ETRAVIRINE] | 13.7 nM | 13.6 nM |  |  |  |  | 7.17 nM | 
Cc1cc(/C=C/C#N)cc(C)c1Oc1nc(NC2CCN(Cc3ccc(S(N)(=O)=O)cc3)CC2)ncc1-c1ccncc1 | 27.1 nM | 24.2 nM | 22.9 nM | 5.87 nM | 4.91 nM | 23.7 nM | 11.1 nM | 4.6 nM
Cc1cc(C#N)cc(C)c1Oc1nc(NC2CCN(Cc3ccc(C(N)=O)cc3)CC2)ncc1-c1cccs1 | 17.9 nM | 10.2 nM | 115 nM | 14.7 nM | 5.15 nM | 75.4 nM | 8.85 nM | 3.34 nM
Cc1cc(/C=C/C#N)cc(C)c1Oc1nc(NC2CCN(Cc3ccc(S(C)(=O)=O)cc3)CC2)ncc1-c1ccc(N)nc1 |  |  | 26.2 nM |  |  |  |  | 5.29 nM
Cc1cc(/C=C/C#N)cc(C)c1Oc1nc(NC2CCN(Cc3ccc(C(N)=O)cc3)CC2)ncc1-c1ccnc(Br)c1 |  |  | 32.2 nM |  |  |  |  | 7 nM
Cc1cc(/C=C/C#N)cc(C)c1Oc1nc(NC2CCN(Cc3ccc(S(C)(=O)=O)cc3)CC2)ncc1-c1ccncc1 |  |  | 26.3 nM |  |  |  |  | 5.74 nM
